In patent US4540700A, “Treatment of diabetic complications with certain spiro-imidazolidine-diones” (Alcon Laboratories, Inc., priority 1984, dated 1985):

Test system: cataracts in rats
Test: prevention or retardation of cataracts in rats fed 30% galactose diet (compound in chow)
Assay type: in vivo, rat
Settings: for inhibition of cataract development: 4 and 8 Mg/Kg/day; for condition of rat eyes: 4 and 8 Mg/Kg/day in 30% galactose chow, 32 days
Source text: The compounds were formulated in ground Purina Rodent Laboratory Chow, Number 5001, containing 30% galactose.
Eighty-four rats were divided into the following seven groups (six treated groups having different compound intake levels and an untreated galactose control) having different compound intake levels as shown in Table IV.
The galactose control group (twelve rats, twenty-four eyes) were fed ground Purina Rodent Laboratory Chow, No. 5001 containing 30% by weight galactose. The six test compound groups (twelve rats, twenty-four eyes per group) were fed the same 30% galactose chow except that the chow was formulated to deliver […] of the indicated test compound (see Table IV).
It is known that young male rats fed a 30% galactose diet (As previously described) will develop lenticular changes within several days which predicatively progress in time irreversibly to cataracts. Aldose reductase inhibitor compounds which are in vivo active will delay or prevent galactose induced cataractogenesis. In this in vivo experiment, the test aldose reductase inhibitor compounds were formulated in the 30% galactose feed to evaluate their in vivo anticataract activity.

O=C1NC(=O)C2(N1)c1ccccc1-c1ccc(F)cc12 (racemic) [Compound L, dl-Spiro(2-fluorofluoren-9,4'-imidazolidine)-2',5'-dione]
inhibition of cataract development: inhibit cataract development | condition of rat eyes: asymptomatic

O=C1NC(=O)C2(CCOc3ccc(F)cc32)N1 (racemic) [Sarges Racemic, dl-spiro-(6-fluorochroman-4,4'-imidazolidine)-2',5'-dione, reference compound]
Times to Cataract, Mean (4 Mg/Kg/day): 15.68 days | average time to snowflake-like opacities (4 Mg/Kg/day): 15.7 days | condition of rat eyes: developed snowflake-like opacities | time to cataract, days less than at 8 Mg/Kg/day (4 vs 8 Mg/Kg/day, average): 4 days | Times to Cataract, Mean (8 Mg/Kg/day): 19.68 days | average time to snowflake-like opacities (8 Mg/Kg/day): 19.7 days

O=C1NC(=O)C2(N1)c1cc(F)ccc1-c1ccc(F)cc12 [M, Spiro-[2,7-difluorofluoren-9,4'-imidazolidine]-2',5'-dione]
inhibition of cataract development: inhibit cataract development | condition of rat eyes: asymptomatic
